Data on two compounds can be found in PMC9980915, “MYCMI-7: A Small MYC-Binding Compound that Inhibits MYC: MAX Interaction and Tumor Growth in a MYC-Dependent Manner” (Cancer Research Communications, 2022).

One assay concerns the target TOP2A (Homo sapiens, UniProt P11388). In words: in vitro TOP2A kDNA decatenation assay. In kind it is biochemical.
For another assay, the target named is MYC (Homo sapiens, UniProt P01106). Description: biochemical.

SMILES strings stand for the structures.

Sequence of TOP2A (P11388 whole entry): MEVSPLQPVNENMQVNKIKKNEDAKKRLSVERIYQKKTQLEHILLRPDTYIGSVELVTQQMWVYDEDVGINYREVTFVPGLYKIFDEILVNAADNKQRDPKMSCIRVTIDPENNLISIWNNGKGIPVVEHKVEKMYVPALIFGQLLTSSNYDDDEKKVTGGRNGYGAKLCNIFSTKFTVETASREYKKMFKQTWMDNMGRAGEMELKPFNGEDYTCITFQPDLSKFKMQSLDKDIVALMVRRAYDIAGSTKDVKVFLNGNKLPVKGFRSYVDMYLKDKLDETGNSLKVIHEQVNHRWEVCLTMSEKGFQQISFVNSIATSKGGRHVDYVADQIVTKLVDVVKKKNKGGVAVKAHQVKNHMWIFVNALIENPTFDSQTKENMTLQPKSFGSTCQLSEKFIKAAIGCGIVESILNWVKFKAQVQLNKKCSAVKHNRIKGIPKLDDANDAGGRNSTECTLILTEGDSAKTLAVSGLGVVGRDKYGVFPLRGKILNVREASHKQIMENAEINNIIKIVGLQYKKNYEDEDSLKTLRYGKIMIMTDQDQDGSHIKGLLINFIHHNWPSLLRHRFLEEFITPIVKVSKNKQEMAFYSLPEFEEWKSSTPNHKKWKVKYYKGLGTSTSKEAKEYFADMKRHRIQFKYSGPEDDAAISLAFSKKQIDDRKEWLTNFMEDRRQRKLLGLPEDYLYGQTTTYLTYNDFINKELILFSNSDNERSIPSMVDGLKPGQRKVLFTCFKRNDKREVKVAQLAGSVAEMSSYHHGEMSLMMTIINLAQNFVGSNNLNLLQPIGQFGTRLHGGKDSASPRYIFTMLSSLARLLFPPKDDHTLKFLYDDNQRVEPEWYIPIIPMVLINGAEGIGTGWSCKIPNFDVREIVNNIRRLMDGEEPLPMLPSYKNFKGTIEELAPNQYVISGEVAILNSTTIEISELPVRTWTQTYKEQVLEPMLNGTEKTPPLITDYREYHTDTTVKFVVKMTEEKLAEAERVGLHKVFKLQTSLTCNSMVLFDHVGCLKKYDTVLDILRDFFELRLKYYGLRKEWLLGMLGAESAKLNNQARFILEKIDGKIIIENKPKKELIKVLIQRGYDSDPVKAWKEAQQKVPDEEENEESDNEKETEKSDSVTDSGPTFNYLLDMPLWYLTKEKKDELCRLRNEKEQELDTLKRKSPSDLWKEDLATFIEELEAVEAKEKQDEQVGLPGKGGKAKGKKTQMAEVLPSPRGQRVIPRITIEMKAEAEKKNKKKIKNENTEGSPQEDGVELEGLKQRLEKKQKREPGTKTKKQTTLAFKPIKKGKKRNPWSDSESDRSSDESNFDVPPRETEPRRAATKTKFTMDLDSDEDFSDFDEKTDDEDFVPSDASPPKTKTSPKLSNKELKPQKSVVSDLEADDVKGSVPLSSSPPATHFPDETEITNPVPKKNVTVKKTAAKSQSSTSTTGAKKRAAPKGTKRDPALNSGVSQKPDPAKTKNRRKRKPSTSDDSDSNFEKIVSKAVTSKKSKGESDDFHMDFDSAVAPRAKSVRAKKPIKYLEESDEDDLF
Sequence of MYC (P01106 368-454 limits assumed): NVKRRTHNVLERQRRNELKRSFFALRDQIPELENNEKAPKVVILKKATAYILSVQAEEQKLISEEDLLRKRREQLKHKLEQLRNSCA

Consider `CCN(CC)CC[n+]1ccc2c(C)c3[nH]c4ccccc4c3c(C)c2c1` [MYCMI-7, 2-(5,11-Dimethyl-6H-25-pyrido[4,3-b]carbazol-2-yl)-N,N-diethylethanamine acetate], for which the “in vitro TOP2A kDNA decatenation assay” value at TOP2A is more than 10 µmol/L. The Kd on MYC was approximately 4 µM.
Consider `COc1cccc2c1C(=O)c1c(O)c3c(c(O)c1C2=O)C[C@@](O)(C(=O)CO)C[C@@H]3O[C@H]1C[C@H](N)[C@H](O)[C@H](C)O1` [doxorubicin, reference compound], for which, at TOP2A, the “in vitro TOP2A kDNA decatenation assay” value is recorded as ~ 3 μmol/L.

For orientation: Kd means the constant that tells how readily two partners part at equilibrium. Read a low Kd as a tighter complex.
